ChEMBL document CHEMBL1201862, “PubChem BioAssay data set” (2004)
Activity calls are given as the source filed them.

Key:
[1] = THP-1 cell cytotoxicity, dose response, cytotoxicity control for non-replicating M. tuberculosis project (AID 489025); type: functional
[2] = test system: Streptococcus sp. 'group A'; assay: growth inhibition of control SK(-) GAS strain, dose response, counter-screen for streptokinase expression inhibitor project, luminescence, kanamycin, BacTiterGlo, confirmation (AID 1900); type: functional, organism-based
Bcl-2-related protein A1 = biological target: T1, Bcl-2-related protein A1 (Mus musculus, UniProt Q07440); assay: Bfl-1 inhibitors, primary screen, biochemical, fluorescence polarization, FITC-Bid, mouse (AID 432)
T1 sequence (Q07440 whole entry): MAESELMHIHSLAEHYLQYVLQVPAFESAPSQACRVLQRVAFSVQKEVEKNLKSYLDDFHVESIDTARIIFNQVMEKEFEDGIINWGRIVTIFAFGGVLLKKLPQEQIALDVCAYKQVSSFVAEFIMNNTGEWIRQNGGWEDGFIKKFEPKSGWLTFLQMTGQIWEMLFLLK

[3] = growth suppression of beta-catenin-knockout colon cells, dose response, cell-based, HCT116, human colon tumor (AID 1045); type: functional;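 also: HCT116 colon tumor cells with beta catenin knocked out; cells exposed to compound for 60 hours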
[4] = CEM21 lymphoblast cell cytotoxicity, dose response, cytotoxicity control for viral fusion inhibitor project, CellTiter-Glo luminescence, cherry-picked (AID 652042); type: functional, cell-based;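 also: potency for signal decrease meaning cytotoxicity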
[5] = biological target: T2, 1-phosphatidylinositol 4,5-bisphosphate phosphodiesterase gamma-1 (Homo sapiens, UniProt P19174); assay: Counterscreen for inhibitors of phospholipase C isozymes (PLC-B3): Fluorescence-based biochemical high throughput dose response assay to identify inhibitors of phospholipase C isozymes (PLC-gamma1).
T2 sequence (P19174 whole entry): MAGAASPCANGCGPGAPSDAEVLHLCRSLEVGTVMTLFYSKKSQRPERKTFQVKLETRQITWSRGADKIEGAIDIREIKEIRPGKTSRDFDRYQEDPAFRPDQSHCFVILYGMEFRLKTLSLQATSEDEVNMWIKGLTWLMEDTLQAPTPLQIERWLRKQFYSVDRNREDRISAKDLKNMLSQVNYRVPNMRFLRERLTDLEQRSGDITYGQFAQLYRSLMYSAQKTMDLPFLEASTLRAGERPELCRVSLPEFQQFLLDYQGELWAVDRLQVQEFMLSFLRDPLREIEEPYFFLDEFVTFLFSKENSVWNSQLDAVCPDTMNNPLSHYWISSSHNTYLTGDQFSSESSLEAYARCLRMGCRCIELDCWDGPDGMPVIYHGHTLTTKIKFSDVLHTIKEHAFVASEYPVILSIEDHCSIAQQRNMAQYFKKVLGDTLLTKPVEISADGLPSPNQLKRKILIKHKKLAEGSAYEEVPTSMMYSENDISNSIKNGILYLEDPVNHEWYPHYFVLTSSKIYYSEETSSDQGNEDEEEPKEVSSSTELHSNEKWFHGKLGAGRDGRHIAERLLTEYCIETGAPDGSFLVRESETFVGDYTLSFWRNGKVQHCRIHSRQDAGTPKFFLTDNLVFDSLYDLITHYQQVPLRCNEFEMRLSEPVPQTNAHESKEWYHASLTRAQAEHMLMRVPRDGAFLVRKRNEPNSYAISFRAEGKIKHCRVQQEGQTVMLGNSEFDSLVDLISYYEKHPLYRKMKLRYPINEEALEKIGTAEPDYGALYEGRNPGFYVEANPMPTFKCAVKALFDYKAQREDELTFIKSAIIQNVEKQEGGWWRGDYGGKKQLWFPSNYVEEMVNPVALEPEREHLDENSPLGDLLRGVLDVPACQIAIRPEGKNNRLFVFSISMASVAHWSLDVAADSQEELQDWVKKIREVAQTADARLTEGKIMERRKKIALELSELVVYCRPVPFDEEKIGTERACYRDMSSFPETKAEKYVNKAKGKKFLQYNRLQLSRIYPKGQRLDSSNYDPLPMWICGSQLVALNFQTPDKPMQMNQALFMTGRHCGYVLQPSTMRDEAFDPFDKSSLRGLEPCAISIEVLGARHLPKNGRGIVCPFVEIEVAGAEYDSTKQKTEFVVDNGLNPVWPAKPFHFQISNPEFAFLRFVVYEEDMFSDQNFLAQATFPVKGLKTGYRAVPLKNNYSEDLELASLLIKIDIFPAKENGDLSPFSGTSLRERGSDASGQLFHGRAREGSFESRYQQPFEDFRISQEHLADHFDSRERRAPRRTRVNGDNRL

[6] = biological target: T3, Tyrosyl-DNA phosphodiesterase 2 (Homo sapiens, UniProt O95551); assay: human TDP2 enzyme inhibitors, dose response, biochemical, epi absorbance, IC50 (AID 743297)
T3 sequence (O95551 whole entry): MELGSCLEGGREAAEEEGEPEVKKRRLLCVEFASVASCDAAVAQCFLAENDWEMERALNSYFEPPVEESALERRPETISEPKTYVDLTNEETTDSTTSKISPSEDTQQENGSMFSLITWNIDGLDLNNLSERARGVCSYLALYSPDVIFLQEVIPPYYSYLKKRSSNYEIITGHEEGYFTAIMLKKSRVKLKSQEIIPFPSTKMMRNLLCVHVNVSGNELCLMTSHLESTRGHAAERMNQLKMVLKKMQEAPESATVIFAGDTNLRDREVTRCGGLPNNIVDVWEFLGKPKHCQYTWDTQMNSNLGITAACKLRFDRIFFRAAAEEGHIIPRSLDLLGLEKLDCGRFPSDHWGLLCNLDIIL

[7] = biological target: Leukocyte tyrosine kinase receptor (Homo sapiens, UniProt P29376); assay: Navigating the Kinome. Panel member name: LTK; type: functional
Sequence of Leukocyte tyrosine kinase receptor (P29376 whole entry): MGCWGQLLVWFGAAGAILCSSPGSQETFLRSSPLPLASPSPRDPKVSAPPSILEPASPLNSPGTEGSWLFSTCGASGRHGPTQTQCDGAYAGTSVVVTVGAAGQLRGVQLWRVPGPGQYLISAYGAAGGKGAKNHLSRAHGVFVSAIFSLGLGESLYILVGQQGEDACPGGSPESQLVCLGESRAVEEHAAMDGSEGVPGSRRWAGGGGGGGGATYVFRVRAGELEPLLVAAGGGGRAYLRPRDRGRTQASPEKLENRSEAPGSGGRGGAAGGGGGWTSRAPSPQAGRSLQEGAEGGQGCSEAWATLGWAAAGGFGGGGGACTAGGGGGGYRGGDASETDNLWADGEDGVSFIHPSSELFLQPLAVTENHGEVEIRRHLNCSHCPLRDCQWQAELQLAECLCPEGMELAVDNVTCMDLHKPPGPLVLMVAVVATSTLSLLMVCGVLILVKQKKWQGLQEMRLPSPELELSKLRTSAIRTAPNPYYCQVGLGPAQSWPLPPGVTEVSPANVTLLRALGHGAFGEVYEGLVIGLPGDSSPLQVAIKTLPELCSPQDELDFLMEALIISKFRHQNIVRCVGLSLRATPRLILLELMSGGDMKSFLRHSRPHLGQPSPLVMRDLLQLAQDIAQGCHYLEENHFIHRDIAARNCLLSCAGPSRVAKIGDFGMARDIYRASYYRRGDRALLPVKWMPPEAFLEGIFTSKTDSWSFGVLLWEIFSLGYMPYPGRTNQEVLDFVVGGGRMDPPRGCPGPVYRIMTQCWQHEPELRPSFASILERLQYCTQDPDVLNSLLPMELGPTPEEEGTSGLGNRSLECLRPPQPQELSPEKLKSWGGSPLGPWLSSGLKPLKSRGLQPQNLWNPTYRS

[8] = biological target: Serine/threonine-protein kinase 17A (Homo sapiens, UniProt Q9UEE5); type: functional
Sequence of Serine/threonine-protein kinase 17A (Q9UEE5 whole entry): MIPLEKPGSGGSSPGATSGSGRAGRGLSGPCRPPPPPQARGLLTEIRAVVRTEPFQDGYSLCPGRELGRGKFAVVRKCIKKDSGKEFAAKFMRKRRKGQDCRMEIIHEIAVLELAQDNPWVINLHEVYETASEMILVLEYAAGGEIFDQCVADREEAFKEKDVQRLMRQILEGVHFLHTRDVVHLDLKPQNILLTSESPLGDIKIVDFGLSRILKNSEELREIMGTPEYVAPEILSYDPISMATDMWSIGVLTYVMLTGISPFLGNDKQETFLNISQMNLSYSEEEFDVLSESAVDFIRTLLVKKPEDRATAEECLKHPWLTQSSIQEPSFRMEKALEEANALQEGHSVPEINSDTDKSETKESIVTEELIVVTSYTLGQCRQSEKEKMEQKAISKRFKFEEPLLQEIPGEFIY

Misshapen-like kinase 1 = Misshapen-like kinase 1 (Homo sapiens, UniProt Q8N4C8); type: functional;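 also: kinome panel screen with MINK as the panel member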
Sequence of Misshapen-like kinase 1 (Q8N4C8 whole entry): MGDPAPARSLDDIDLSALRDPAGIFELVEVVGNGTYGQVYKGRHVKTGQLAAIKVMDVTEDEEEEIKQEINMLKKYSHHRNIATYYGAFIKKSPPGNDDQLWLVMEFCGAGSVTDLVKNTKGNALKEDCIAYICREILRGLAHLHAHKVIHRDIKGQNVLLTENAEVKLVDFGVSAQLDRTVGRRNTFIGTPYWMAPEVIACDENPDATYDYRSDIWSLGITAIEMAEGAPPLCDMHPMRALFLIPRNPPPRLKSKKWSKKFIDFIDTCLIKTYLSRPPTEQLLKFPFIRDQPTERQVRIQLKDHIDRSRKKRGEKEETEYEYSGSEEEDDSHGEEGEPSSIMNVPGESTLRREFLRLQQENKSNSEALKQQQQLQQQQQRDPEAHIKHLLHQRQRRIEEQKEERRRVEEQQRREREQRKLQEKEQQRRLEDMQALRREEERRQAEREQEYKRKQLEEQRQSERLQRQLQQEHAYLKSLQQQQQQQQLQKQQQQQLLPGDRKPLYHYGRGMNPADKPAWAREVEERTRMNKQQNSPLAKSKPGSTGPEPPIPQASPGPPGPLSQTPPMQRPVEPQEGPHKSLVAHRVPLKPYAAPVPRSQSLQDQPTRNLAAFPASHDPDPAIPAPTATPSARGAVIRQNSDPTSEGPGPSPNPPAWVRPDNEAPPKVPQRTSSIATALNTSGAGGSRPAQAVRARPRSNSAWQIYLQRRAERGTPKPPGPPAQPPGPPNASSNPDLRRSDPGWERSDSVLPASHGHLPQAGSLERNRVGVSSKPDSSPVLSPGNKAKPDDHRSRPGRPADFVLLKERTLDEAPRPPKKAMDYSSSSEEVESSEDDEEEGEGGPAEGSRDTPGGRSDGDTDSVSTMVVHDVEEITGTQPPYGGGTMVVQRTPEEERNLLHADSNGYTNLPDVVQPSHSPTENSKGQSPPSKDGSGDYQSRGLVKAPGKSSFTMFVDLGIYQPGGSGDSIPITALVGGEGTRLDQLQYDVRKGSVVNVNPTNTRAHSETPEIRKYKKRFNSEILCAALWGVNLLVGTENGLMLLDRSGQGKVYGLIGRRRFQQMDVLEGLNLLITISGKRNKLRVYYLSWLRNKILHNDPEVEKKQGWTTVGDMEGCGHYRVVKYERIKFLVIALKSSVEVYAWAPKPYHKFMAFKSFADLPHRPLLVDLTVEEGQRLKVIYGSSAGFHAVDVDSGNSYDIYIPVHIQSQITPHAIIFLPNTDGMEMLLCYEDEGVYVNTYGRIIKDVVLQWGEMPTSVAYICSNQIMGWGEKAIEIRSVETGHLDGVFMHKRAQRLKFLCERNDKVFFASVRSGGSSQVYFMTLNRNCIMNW

[9] = biological target: Mitogen-activated protein kinase 1 (Homo sapiens, UniProt P28482); type: functional
Sequence of Mitogen-activated protein kinase 1 (P28482 whole entry): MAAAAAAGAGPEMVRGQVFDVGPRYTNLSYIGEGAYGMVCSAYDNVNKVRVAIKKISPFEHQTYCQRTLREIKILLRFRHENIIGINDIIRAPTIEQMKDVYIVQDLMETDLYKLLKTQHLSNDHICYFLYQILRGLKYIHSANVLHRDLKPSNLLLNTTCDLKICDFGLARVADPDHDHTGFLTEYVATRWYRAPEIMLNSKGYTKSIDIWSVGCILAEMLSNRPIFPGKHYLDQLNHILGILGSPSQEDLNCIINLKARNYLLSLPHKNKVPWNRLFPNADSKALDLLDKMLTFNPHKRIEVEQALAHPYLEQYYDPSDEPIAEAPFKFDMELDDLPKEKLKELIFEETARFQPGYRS

[10] = biological target: C-C chemokine receptor type 6 (Homo sapiens, UniProt P51684); assay: CCR6 receptor antagonists, dose response, cell-based, luminescent beta-arrestin readout (AID 504728); type: functional
Sequence of C-C chemokine receptor type 6 (P51684 whole entry, canonical isoform): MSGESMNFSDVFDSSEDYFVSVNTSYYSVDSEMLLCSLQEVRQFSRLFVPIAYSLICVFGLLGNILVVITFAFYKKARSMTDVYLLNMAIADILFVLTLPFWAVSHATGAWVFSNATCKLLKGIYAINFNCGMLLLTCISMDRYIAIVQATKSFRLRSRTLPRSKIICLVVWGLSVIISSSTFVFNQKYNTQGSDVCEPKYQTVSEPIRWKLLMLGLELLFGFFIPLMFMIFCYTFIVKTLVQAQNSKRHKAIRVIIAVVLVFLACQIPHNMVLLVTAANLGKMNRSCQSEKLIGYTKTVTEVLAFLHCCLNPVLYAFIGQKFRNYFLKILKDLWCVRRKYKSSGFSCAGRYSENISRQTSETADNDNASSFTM

[11] = biological target: Casein kinase I isoform delta (Homo sapiens, UniProt P48730); type: functional;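 also: measured as one member (CSNK1D) of a kinome panel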
Sequence of Casein kinase I isoform delta (P48730 whole entry, canonical isoform): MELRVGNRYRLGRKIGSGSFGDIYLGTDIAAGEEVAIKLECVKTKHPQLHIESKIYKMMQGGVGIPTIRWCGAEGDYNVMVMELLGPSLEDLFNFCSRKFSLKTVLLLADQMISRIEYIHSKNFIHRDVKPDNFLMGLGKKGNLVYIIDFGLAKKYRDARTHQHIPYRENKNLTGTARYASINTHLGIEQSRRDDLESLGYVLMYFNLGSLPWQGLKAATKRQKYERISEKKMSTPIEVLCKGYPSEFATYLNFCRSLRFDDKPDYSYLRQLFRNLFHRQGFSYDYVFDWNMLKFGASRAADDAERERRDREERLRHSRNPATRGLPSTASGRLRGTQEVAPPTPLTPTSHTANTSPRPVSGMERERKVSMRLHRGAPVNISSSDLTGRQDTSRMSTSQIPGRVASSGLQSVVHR

[12] = biological target: Mitogen-activated protein kinase kinase kinase kinase 5 (Homo sapiens, UniProt Q9Y4K4); type: functional;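 also: measured as one member of a kinome-spanning kinase panel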
Sequence of Mitogen-activated protein kinase kinase kinase kinase 5 (Q9Y4K4 whole entry): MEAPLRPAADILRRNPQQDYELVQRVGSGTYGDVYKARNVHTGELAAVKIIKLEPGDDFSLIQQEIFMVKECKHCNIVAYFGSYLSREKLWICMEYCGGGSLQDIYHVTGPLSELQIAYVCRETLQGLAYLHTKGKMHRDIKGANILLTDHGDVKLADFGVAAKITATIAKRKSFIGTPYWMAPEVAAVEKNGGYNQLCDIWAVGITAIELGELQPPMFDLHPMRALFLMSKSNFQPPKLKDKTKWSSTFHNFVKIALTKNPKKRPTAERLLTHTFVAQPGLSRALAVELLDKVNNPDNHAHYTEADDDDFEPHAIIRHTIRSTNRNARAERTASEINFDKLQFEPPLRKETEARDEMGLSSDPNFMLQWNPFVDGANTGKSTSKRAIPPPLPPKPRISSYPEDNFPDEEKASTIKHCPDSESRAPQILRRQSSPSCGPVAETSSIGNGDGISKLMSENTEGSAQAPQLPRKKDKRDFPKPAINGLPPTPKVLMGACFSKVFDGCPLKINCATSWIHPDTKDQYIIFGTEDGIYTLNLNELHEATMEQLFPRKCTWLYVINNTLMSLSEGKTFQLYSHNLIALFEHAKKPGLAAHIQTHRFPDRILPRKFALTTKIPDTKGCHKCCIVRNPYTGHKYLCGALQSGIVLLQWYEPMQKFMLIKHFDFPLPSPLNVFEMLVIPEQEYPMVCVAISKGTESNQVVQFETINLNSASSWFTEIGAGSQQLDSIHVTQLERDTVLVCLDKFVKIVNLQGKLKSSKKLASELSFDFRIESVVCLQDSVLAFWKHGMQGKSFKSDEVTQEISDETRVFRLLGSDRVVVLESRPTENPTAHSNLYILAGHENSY

COC(=O)CCS(=O)(=O)c1nc(-c2ccccc2)cc(C(F)(F)F)n1
CC50 [1]: 25.2 µM (active)

O=C(O)c1ccc2c3c(ncnc13)-c1ccccc1C2=O
EC50 [2]: 6.43 µM (active) | IC50 (Bcl-2-related protein A1): > 100 µM (not active) | EC50 [3]: 13.4 µM (active)

CCOC(=O)c1c2c(n(Cc3ccccc3)c1C)C(=O)C(=O)c1ccccc1-2
AC50 [4]: 5.84 µM (active) | IC50 [5]: 28.3 µM (inactive) | IC50 [6]: 4.78 µM (active)

Cc1ccc2nccc(NC(=O)Nc3cccc(C(F)(F)F)n3)c2c1
Ki [7]: > 3.16 µM (inactive) | Ki [8]: > 3.98 µM (inactive) | Ki (Misshapen-like kinase 1): 0.2 µM (active) | Ki [9]: > 7.94 µM (inactive)

Cc1c(/N=C2\C=CC(=O)c3ccccc32)c(=O)n(-c2ccccc2)n1C
IC50 [10]: > 66.6 µM (inactive)

COc1cc2c(cc1F)C(c1ccccc1Cl)=Nc1c(n[nH]c1C)N2 [RG-1530]
Ki [11]: > 7.94 µM (inactive) | Ki [12]: > 2.51 µM (inactive)
